Measured values reported in ChEMBL document CHEMBL3603790, “2- and 3-Fluoro-3-deazaneplanocins, 2-fluoro-3-deazaaristeromycins, and 3-methyl-3-deazaneplanocin: Synthesis and antiviral properties” (Bioorg Med Chem, 2015).
Activity calls are given as the source filed them. The calls are words filed in the database; no cut-off is given here.

Legend:
[1] = test system: Rift Valley fever virus; test: Antiviral activity against Rift Valley fever virus infected in African green monkey Vero 76 cells after 3 days by neutral red dye-based plaque reduction assay; format: functional, organism-based
[2] = test system: Tacaribe virus; test: Antiviral activity against Tacaribe virus infected in African green monkey Vero 76 cells after 3 days by neutral red dye-based plaque reduction assay; format: functional, organism-based; conditions: Mammarenavirus tacaribeense
[3] = test system: Dengue virus; test: Antiviral activity against Dengue virus infected in African green monkey Vero cells after 3 days by neutral red dye-based plaque reduction assay; format: functional, organism-based
[4] = test system: Measles morbillivirus; test: Antiviral activity against Measles virus infected in African green monkey CV1 cells after 3 days by neutral red dye-based plaque reduction assay; format: functional, organism-based; conditions: CV-1, 72 h
[5] = test system: Vero; test: (§1) Cytotoxicity against African green monkey Vero cells; format: cell-based; conditions: chlorocebus sabaeus, vero
[6] = Cytotoxicity against African green monkey Vero 76 cells; format: cell-based; conditions: chlorocebus sabaeus, vero 76
[7] = Cytotoxicity against African green monkey CV1 cells; format: cell-based, CV-1; conditions: chlorocebus aethiops
[8] = Selectivity index, ratio of CC50 for African green monkey CV1 cells to IC50 for Measles virus; format: functional, CV-1
[9] = test system: West Nile virus; test: Antiviral activity against WNV infected in African green monkey Vero 76 cells after 3 days by neutral red dye-based plaque reduction assay; format: functional, organism-based
[10] = test system: Vaccinia virus; test: Antiviral activity against Vaccinia virus infected in HEL cells after 3 days by neutral red dye-based plaque reduction assay; format: functional, organism-based; conditions: Orthopoxvirus vaccinia
[11] = test system: Respiratory syncytial virus; test: Antiviral activity against Respiratory syncytial virus infected in human HeLa cells after 3 days by neutral red dye-based plaque reduction assay; format: functional, organism-based
[12] = test system: Respiratory syncytial virus; test: Antiviral activity against Respiratory syncytial virus infected in monkey MA104 cells after 3 days by neutral red dye-based plaque reduction assay; format: functional, organism-based
[13] = test system: Venezuelan equine encephalitis virus; test: Antiviral activity against Venezuelan equine encephalitis virus infected in African green monkey Vero cells after 3 days by neutral red dye-based plaque reduction assay; format: functional, organism-based
[14] = test system: Hepatitis C virus; test: Antiviral activity against Hepatitis C virus infected in human Ava5 cells after 3 days by neutral red dye-based plaque reduction assay; format: functional, organism-based; conditions: Hepacivirus hominis
[15] = test system: HEL; test: Cytotoxicity against HEL cells; format: cell-based; conditions: human
[16] = Cytotoxicity against monkey MA104 cells; format: cell-based, Macaca mulatta; conditions: rhesus monkey
[17] = Cytotoxicity against human Ava5 cells; format: cell-based
[18] = Inhibition of rabbit erythrocytic AdoHcy hydrolase using AdoHcy as substrate assessed as formation of L-homocysteine preincubated for 5 mins followed by substrate addition measured after 1 hr by thiol quantitation reagent-based assay; set-up: species or system Oryctolagus cuniculus
[19] = test system: HeLa; test: Cytotoxicity against human HeLa cells; format: cell-based
[20] = test system: Yellow fever virus; test: Antiviral activity against Yellow fever virus infected in African green monkey Vero cells after 3 days by neutral red dye-based plaque reduction assay; format: functional, organism-based; conditions: 72 h
[21] = as §1; format: cell-based; conditions: chlorocebus sabaeus, Vero cells
[22] = test system: MDCK; test: Cytotoxicity against MDCK cells; format: cell-based, Canis lupus familiaris; conditions: dog, mdck
[23] = Selectivity index, ratio of CC50 for African green monkey Vero cells to IC50 for Yellow fever virus; format: functional
[24] = test system: Cowpox virus; test: Antiviral activity against Cowpox virus infected in HFF after 3 days by neutral red dye-based plaque reduction assay; format: functional, organism-based
[25] = test system: Influenza A virus; test: Antiviral activity against Influenza A virus H1N1 infected in MDCK cells after 3 days by neutral red dye-based plaque reduction assay; format: functional, organism-based
[26] = test system: SARS-CoV; test: Antiviral activity against SARS coronavirus infected in African green monkey Vero E6 cells after 3 days by neutral red dye-based plaque reduction assay; format: functional, organism-based; conditions: Severe acute respiratory syndrome-related coronavirus
[27] = test system: Human alphaherpesvirus 1; test: Antiviral activity against Human herpesvirus 1 infected in HEL cells after 3 days by neutral red dye-based plaque reduction assay; format: functional, organism-based
[28] = test system: Human alphaherpesvirus 2; test: Antiviral activity against Human herpesvirus 2 infected in HEL cells after 3 days by neutral red dye-based plaque reduction assay; format: functional, organism-based
[29] = test system: Enterovirus C; test: Antiviral activity against Poliovirus infected in monkey LLC-MK2 cells after 3 days by neutral red dye-based plaque reduction assay; format: functional, organism-based
[30] = test system: Chikungunya virus; test: Antiviral activity against Chikungunya virus infected in African green monkey Vero 76 cells after 3 days by neutral red dye-based plaque reduction assay; format: functional, cell-based
[31] = test system: Enterovirus A71; test: Antiviral activity against Enterovirus 71 infected in monkey LLC-MK2 cells after 3 days by neutral red dye-based plaque reduction assay; format: functional, organism-based
[32] = test system: Cytomegalovirus; test: Antiviral activity against Cytomegalovirus infected in HEL cells after 3 days by neutral red dye-based plaque reduction assay; format: functional, organism-based
[33] = test system: Pichinde virus; test: Antiviral activity against Pichinde virus infected in African green monkey Vero cells after 3 days by neutral red dye-based plaque reduction assay; format: functional, organism-based
[34] = test system: Human papillomavirus; test: Antiviral activity against Human papillomavirus infected in HEK293 cells after 3 days by neutral red dye-based plaque reduction assay; format: functional, organism-based
[35] = test system: LLC-MK2; test: Cytotoxicity against monkey LLC-MK2 cells; format: cell-based, Macaca mulatta; conditions: rhesus monkey
[36] = test system: HEK293; test: Cytotoxicity against HEK293 cells; format: cell-based; conditions: human
[37] = Cytotoxicity against African green monkey Vero E6 cells; format: cell-based; conditions: chlorocebus sabaeus
[38] = test system: Human betaherpesvirus 5; test: Antiviral activity against HCMV infected in HFF after 3 days by neutral red dye-based plaque reduction assay; format: functional, organism-based; conditions: Human betaherpesvirus 5, 72 h
[39] = test system: Hepatitis B virus; test: Antiviral activity against HBV infected in human HepG22.2.15 cells after 3 days by neutral red dye-based plaque reduction assay; format: functional, organism-based; conditions: HepG2 2.2.15, 72 h
[40] = Cytotoxicity against HFF; format: cell-based; conditions: human, HFF cells
[41] = Cytotoxicity against human […] cells; format: cell-based
[42] = Selectivity index, ratio of CC50 for HFF to IC50 for HCMV; format: functional
[43] = Selectivity index, ratio of CC50 for human HepG2(2.2.1) cells to IC50 for HBV; format: functional

## Nc1nc(F)cc2c1ncn2[C@@H]1C[C@H](CCO)[C@@H](O)[C@H]1O
[1]
  Activity: inactive
[2]
  Activity: inactive
[3]
  Activity: inactive
[4]
  IC50: 162 µM
[5]
  Activity: Non-toxic
[6]
  Activity: Non-toxic
[7]
  CC50: > 338 µM
[8]
  Ratio CC50/IC50: >2.1
[9]
  Activity: inactive
[10]
  Activity: inactive
[11]
  Activity: inactive
[12]
  Activity: inactive
[13]
  Activity: inactive
[14]
  Activity: inactive
[15]
  Activity: Non-toxic
[16]
  Activity: Non-toxic
[17]
  Activity: Non-toxic
[18]
  IC50: 3.75 µM
[19]
  Activity: Non-toxic

## Nc1nc(F)cc2c1ncn2[C@@H]1C[C@H](O)[C@@H](O)[C@H]1O
[20]
  IC50: 15 µM
[1]
  Activity: inactive
[2]
  Activity: inactive
[3]
  Activity: inactive
[4]
  IC50: 30.2 µM
[21]
  CC50: > 100 µM
[6]
  Activity: Non-toxic
[22]
  Activity: Non-toxic
[7]
  CC50: > 100 µM
[23]
  Ratio CC50/IC50: >6.7
[8]
  Ratio CC50/IC50: >3
[9]
  Activity: inactive
[24]
  Activity: inactive
[10]
  Activity: inactive
[11]
  Activity: inactive
[12]
  Activity: inactive
[25]
  Activity: inactive
[13]
  Activity: inactive
[26]
  Activity: inactive
[14]
  Activity: inactive
[27]
  Activity: inactive
[28]
  Activity: inactive
[29]
  Activity: inactive
[30]
  Activity: inactive
[31]
  Activity: inactive
[32]
  Activity: inactive
[33]
  Activity: inactive
[34]
  Activity: inactive
[15]
  Activity: Non-toxic
[16]
  Activity: Non-toxic
[17]
  Activity: Non-toxic
[35]
  Activity: Non-toxic
[36]
  Activity: Non-toxic
[18]
  IC50: 1 µM
[19]
  Activity: Non-toxic
[37]
  Activity: Non-toxic

## Nc1nc(F)cc2c1ncn2[C@@H]1C=C(CCO)[C@@H](O)[C@H]1O
[20]
  IC50: 29 µM
[1]
  Activity: inactive
[3]
  Activity: inactive
[38]
  IC50: < 0.1 µM
[39]
  IC50: 0.99 µM
[4]
  IC50: 89.8 µM
[21]
  CC50: > 100 µM
[6]
  Activity: Non-toxic
[40]
  CC50: > 300 µM
[22]
  Activity: Non-toxic
[41]
  CC50: 7.5 µM
[7]
  CC50: > 100 µM
[23]
  Ratio CC50/IC50: >3.4
[42]
  Ratio CC50/IC50: > 300
[43]
  Ratio CC50/IC50: 8
[8]
  Ratio CC50/IC50: >1
[9]
  Activity: inactive
[10]
  Activity: inactive
[11]
  Activity: inactive
[12]
  Activity: inactive
[25]
  Activity: inactive
[13]
  Activity: inactive
[26]
  Activity: inactive
[14]
  Activity: inactive
[27]
  Activity: inactive
[28]
  Activity: inactive
[29]
  Activity: inactive
[15]
  Activity: Non-toxic
[16]
  Activity: Non-toxic
[17]
  Activity: Non-toxic
[35]
  Activity: Non-toxic
[18]
  IC50: > 10 µM
[19]
  Activity: Non-toxic
[37]
  Activity: Non-toxic
